# Source: patent US9510598B2, “Nitrogen-containing heterocyclic compounds for plant disease control” (BAYER CROPSCIENCE AG, priority 2012, dated 2016)
# Format: physicochemical
# Conditions: HPLC on reversed phase columns, method [a]: pH 2.7, 0.1% formic acid in water / acetonitrile, linear gradient 10% to 95% acetonitrile
row,SMILES,log P
1,Cc1csc(CNC(=O)C2(C)CC(c3ccc4ncc(Br)cc4c3)=NO2)n1 (centres unmarked) [compound 649],2.56[a]
2,C#Cc1cnc2ccc(C3=NOC(C)(C(=O)N(OC)C(C)C)C3)cc2c1 (centres unmarked) [compound 650],3.15[a]
3,CON(C(=O)C1(C)CC(c2ccc3ncc(Br)cc3c2)=NO1)C(C)C (centres unmarked) [compound 651],3.59[a]
4,C#Cc1cnc2ccc(C3=NOC(C)(C(=O)NCC(F)F)C3)cc2c1 (centres unmarked) [compound 652],2.26[a]
5,CC1(C(=O)NCC(F)F)CC(c2ccc3ncc(Br)cc3c2)=NO1 (centres unmarked) [compound 653],2.56[a]
6,C#Cc1cnc2ccc(C3=NOC(C)(C(=O)NCc4cn(CCCCC)nc4C)C3)cc2c1 (centres unmarked) [compound 654],2.96[a]
7,CCCCCn1cc(CNC(=O)C2(C)CC(c3ccc4ncc(Br)cc4c3)=NO2)c(C)n1 (centres unmarked) [compound 655],3.31[a]
8,C#Cc1cnc2ccc(C3=NOC(C)(C(=O)NCc4cn(CCCC)nc4C)C3)cc2c1 (centres unmarked) [compound 656],2.64[a]
9,CCCCn1cc(CNC(=O)C2(C)CC(c3ccc4ncc(Br)cc4c3)=NO2)c(C)n1 (centres unmarked) [compound 657],2.96[a]
10,C#Cc1cnc2ccc(C3=NOC(C)(C(=O)N(OC)C(C)CC)C3)cc2c1 (centres unmarked) [compound 658],3.50[a]
11,CCC(C)N(OC)C(=O)C1(C)CC(c2ccc3ncc(Br)cc3c2)=NO1 (centres unmarked) [compound 659],3.96[a]
12,C#Cc1cnc2ccc(C3=NOC(C)(C(=O)NCc4cccc(C(C)C)n4)C3)cc2c1 (centres unmarked) [compound 660],2.07[a]
13,CC1(C(=O)NCc2ncccn2)CC(c2ccc3ncc(Br)cc3c2)=NO1 (centres unmarked) [compound 661],2.13[a]
14,Cc1cc(C)nc(CNC(=O)C2(C)CC(c3ccc4ncc(Br)cc4c3)=NO2)n1 (centres unmarked) [compound 662],2.51[a]
15,C#Cc1cnc2ccc(C3=NOC(C)(C(=O)NCc4ccncn4)C3)cc2c1 (centres unmarked) [compound 663],1.78[a]
16,COc1ccnc(CNC(=O)C2(C)CC(c3ccc4ncc(Br)cc4c3)=NO2)c1 (centres unmarked) [compound 664],1.49[a]

row,SMILES,log P
1,C#Cc1cnc2ccc(C3=NOC(C)(C(=O)NCc4cccc(OC)n4)C3)cc2c1 (centres unmarked) [compound 665],2.77[a]
2,COc1ccc(CNC(=O)C2(C)CC(c3ccc4ncc(Br)cc4c3)=NO2)nc1 (centres unmarked) [compound 666],2.20[a]
3,COc1cccc(CNC(=O)C2(C)CC(c3ccc4ncc(Br)cc4c3)=NO2)n1 (centres unmarked) [compound 667],3.11[a]
4,C#Cc1cnc2ccc(C3=NOC(C)(C(=O)NCc4cn(C5CC5)nc4C)C3)cc2c1 (centres unmarked) [compound 668],2.26[a]
5,Cc1nn(C2CC2)cc1CNC(=O)C1(C)CC(c2ccc3ncc(Br)cc3c2)=NO1 (centres unmarked) [compound 669],2.52[a]
6,COc1ccncc1CNC(=O)C1(C)CC(c2ccc3ncc(Br)cc3c2)=NO1 (centres unmarked) [compound 670],1.40[a]
7,COc1cc(CNC(=O)C2(C)CC(c3ccc4ncc(Br)cc4c3)=NO2)ccn1 (centres unmarked) [compound 671],2.54[a]
8,C#Cc1cnc2ccc(C3=NOC(C)(C(=O)NCc4cnccc4OC)C3)cc2c1 (centres unmarked) [compound 672],1.27[a]
9,COc1cnccc1CNC(=O)C1(C)CC(c2ccc3ncc(Br)cc3c2)=NO1 (centres unmarked) [compound 673],1.56[a]
10,C#Cc1cnc2ccc(C3=NOC(C)(C(=O)NCc4ccnc(OC)c4)C3)cc2c1 (centres unmarked) [compound 674],2.26[a]
11,COc1ccc(CNC(=O)C2(C)CC(c3ccc4ncc(Br)cc4c3)=NO2)nn1 (centres unmarked) [compound 675],2.28[a]
12,C#Cc1cnc2ccc(C3=NOC(C)(C(=O)NCc4ccncc4OC)C3)cc2c1 (centres unmarked) [compound 676],1.40[a]
13,C#Cc1cnc2ccc(C3=NOC(C)(C(=O)NCc4cc(OC)ccn4)C3)cc2c1 (centres unmarked) [compound 677],1.34[a]
14,COc1ncccc1CNC(=O)C1(C)CC(c2ccc3ncc(Br)cc3c2)=NO1 (centres unmarked) [compound 678],2.82[a]
15,COc1ccc(CNC(=O)C2(C)CC(c3ccc4ncc(Br)cc4c3)=NO2)cn1 (centres unmarked) [compound 679],2.66[a]

# Same assay, conditions: HPLC on reversed phase columns, method [a]: pH 2.7, 0.1% formic acid in water and acetonitrile, linear gradient 10% to 95% acetonitrile
row,SMILES,log P
1,C#Cc1cnc2ccc(C3=NOC(C)(C(=O)NCc4cccnc4OC)C3)cc2c1 (centres unmarked) [compound 680],2.52[a]
2,C#Cc1cnc2ccc(C3=NOC(C)(C(=O)NCc4ccc(OC)nc4)C3)cc2c1 (centres unmarked) [compound 681],2.37[a]
3,C#Cc1cnc2ccc(C3=NOC(C)(C(=O)NCc4cnccc4C)C3)cc2c1 (centres unmarked) [compound 682],1.29[a]
4,C#Cc1cnc2ccc(C3=NOC(C)(C(=O)NCc4ccncc4C)C3)cc2c1 (centres unmarked) [compound 683],1.29[a]
5,Cc1cc(CNC(=O)C2(C)CC(c3ccc4ncc(Br)cc4c3)=NO2)ccn1 (centres unmarked) [compound 684],1.40[a]
6,C#Cc1cnc2ccc(C3=NOC(C)(C(=O)NCc4ccnc(C)c4)C3)cc2c1 (centres unmarked) [compound 685],1.27[a]
7,CC(C)c1cccc(CNC(=O)C2(C)CC(c3ccc4ncc(Br)cc4c3)=NO2)n1 (centres unmarked) [compound 686],2.33[a]
8,C#Cc1cnc2ccc(C3=NOC(C)(C(=O)NCc4ccc(OC)nn4)C3)cc2c1 (centres unmarked) [compound 687],2.05[a]
9,COc1ncc(CNC(=O)C2(C)CC(c3ccc4ncc(Br)cc4c3)=NO2)cn1 (centres unmarked) [compound 688],2.25[a]
10,C#Cc1cnc2ccc(C3=NOC(C)(C(=O)NCc4cnc(OC)nc4)C3)cc2c1 (centres unmarked) [compound 689],2.01[a]
11,Cc1cccc(CNC(=O)C2(C)CC(c3ccc4ncc(Br)cc4c3)=NO2)n1 (centres unmarked) [compound 690],1.60[a]
12,C#Cc1cnc2ccc(C3=NOC(C)(C(=O)NCc4cccc(C)n4)C3)cc2c1 (centres unmarked) [compound 691],1.43[a]
13,CC1(C(=O)NCc2cncnc2)CC(c2ccc3ncc(Br)cc3c2)=NO1 (centres unmarked) [compound 692],1.95[a]
14,Cc1ccncc1CNC(=O)C1(C)CC(c2ccc3ncc(Br)cc3c2)=NO1 (centres unmarked) [compound 693],1.43[a]
15,CCn1cc(NC(=O)C2(C)CC(c3ccc4ncc(Br)cc4c3)=NO2)cn1 (centres unmarked) [compound 694],2.45[a]
16,Cc1cnccc1CNC(=O)C1(C)CC(c2ccc3ncc(Br)cc3c2)=NO1 (centres unmarked) [compound 695],1.46[a]
17,C#Cc1cnc2ccc(C3=NOC(C)(C(=O)NCc4cncc(OC)c4)C3)cc2c1 (centres unmarked) [compound 696],1.59[a]
18,C#Cc1cnc2ccc(C3=NOC(C)(C(=O)NCc4cncnc4)C3)cc2c1 (centres unmarked) [compound 697],1.74[a]
19,COc1cncc(CNC(=O)C2(C)CC(c3ccc4ncc(Br)cc4c3)=NO2)c1 (centres unmarked) [compound 698],1.78[a]
20,C#Cc1cnc2ccc(C3=NOC(C)(C(=O)Nc4cnn(CC)c4)C3)cc2c1 (centres unmarked) [compound 699],2.17[a]

row,SMILES,log P
1,C#CC1(C(=O)NCc2cn(CCC)nc2C)CC(c2ccc3ncc(Br)cc3c2)=NO1 (centres unmarked) [compound 700],2.78[a]
2,C#Cc1cnc2ccc(C3=NOC(C)(C(=O)NC(C)CN(C)C)C3)cc2c1 (centres unmarked) [compound 701],1.42[a]
3,COC1(C(=O)NC2CCN(C)CC2)CC(c2ccc3ncc(I)cc3c2)=NO1 (centres unmarked) [compound 702],1.67[a]
4,CCn1cc(CNC(=O)C2(C)CC(c3ccc4ncc(Br)cc4c3)=NO2)c(Cl)n1 (centres unmarked) [compound 704],2.84[a]
5,C#Cc1cnc2ccc(C3=NOC(OC)(C(=O)NCc4cn(CC)nc4Cl)C3)cc2c1 (centres unmarked) [compound 705],2.51[a]
6,CC1(C(=O)NCc2cnccn2)CC(c2ccc3ncc(Br)cc3c2)=NO1 (centres unmarked) [compound 706],2.10[a]
7,Cn1c(C(=NOCc2cccc(NC(=O)C3(C)CC(c4ccc5ncc(Br)cc5c4)=NO3)n2)c2ccccc2)noc1=O (centres unmarked) [compound 707],4.49[a]
8,C#Cc1cnc2ccc(C3=NOC(OC)(C(=O)NCc4cnccn4)C3)cc2c1 (centres unmarked) [compound 708],1.85[a]
9,CCn1cc(CNC(=O)C2(C#N)CC(c3ccc4ncc(Br)cc4c3)=NO2)c(C)n1 (centres unmarked) [compound 709],2.51[a]
10,CC1(C(=O)NCCC2CC2)CC(c2ccc3ncc(Br)cc3c2)=NO1 (centres unmarked) [compound 710],3.17[a]
11,COC1(C(=O)Nc2cccc(CON=C(c3ccccc3)c3noc(=O)n3C)n2)CC(c2ccc3ncc(Br)cc3c2)=NO1 (centres unmarked) [compound 711],4.39[a]
12,COc1ccc(CCNC(=O)C2(OC)CC(c3ccc4ncc(Br)cc4c3)=NO2)cc1OC (centres unmarked) [compound 712],2.94[a]
13,CC1(C(=O)NCCC2CCCO2)CC(c2ccc3ncc(Br)cc3c2)=NO1 (centres unmarked) [compound 713],2.39[a]
14,C=C(C)CNC(=O)C1(C)CC(c2ccc3ncc(Br)cc3c2)=NO1 (centres unmarked) [compound 715],2.90[a]
15,CC(C)(C#N)NC(=O)C1(C)CC(c2ccc3ncc(Br)cc3c2)=NO1 (centres unmarked) [compound 716],2.68[a]
16,C#CC(CC)(CC)NC(=O)C1(C)CC(c2ccc3ncc(Br)cc3c2)=NO1 (centres unmarked) [compound 717],3.96[a]
17,C#CC1(NC(=O)C2(C)CC(c3ccc4ncc(Br)cc4c3)=NO2)CC1 (centres unmarked) [compound 718],2.64[a]
18,C#Cc1cnc2ccc(C3=NOC(OC)(C(=O)NCCC4CC4)C3)cc2c1 (centres unmarked) [compound 719],2.78[a]
19,CC1(C(=O)NCCC#N)CC(c2ccc3ncc(Br)cc3c2)=NO1 (centres unmarked) [compound 720],2.15[a]
20,CCC(C#N)NC(=O)C1(C)CC(c2ccc3ncc(Br)cc3c2)=NO1 (centres unmarked) [compound 721],2.75[a]
